Data set [1] has as its system false pimpernel. The data set can be described thus: Test Example 1: herbicidal efficacy on rice paddy weeds pre-emergence. It is filed as in vivo, Lindernia pyxidaria. The following applies: dosage 1000 g/ha, 21 days.
Data set [2] deals with transplanted paddy rice plant and Bulrush. The data set can be described thus: Test Example 5: selectivity between transplanted paddy rice plant and weeds. It is filed as in vivo. The following applies: (highest dosage with no phytotoxicity to paddy rice)/(lowest dosage with effective level 4 on Bulrush); rice 3000-100 g/ha, Bulrush 300-10 g/ha; 21 days. The procedure: (§1) The standard of judgment for herbicidal efficacy (degree of growth inhibition) and phytotoxicity 4 . . . 90%-100% of herbicidal efficacy or phytotoxicity 3 . . . 70%-89% of herbicidal efficacy or phytotoxicity 2 . . . 40%-69% of herbicidal efficacy or phytotoxicity 1 . . . 1%-39% of herbicidal efficacy or phytotoxicity 0 . . . 0% of herbicidal efficacy or phytotoxicity
Phytotoxicity test for transplanted paddy rice plants was carried out, as in Test Example 3, by the treatment of 3000, 1000, 300 and 100 (g/ha of the active ingredient) dosage, and herbicidal test to weed post-emergence was carried out to Burlush seeded as in Test Example 2 treating at 300, 100, 30 and 10 (g/ha) dosage. The pots were kept in a hot house for 21 days after the treatment, and the phytotoxicity and the herbicidal efficacy was investigated and evaluated according to the standard in Test Example 1 by comparing with the untreated control. […] Further, as a comparative compound, the compound No. 6-28 described in the JP-A-2004-107322 was used.

A further data set has as its system barnyard glass. The data set can be described thus: Test Example 2: herbicidal efficacy on rice paddy weeds post-emergence. It is filed as in vivo, Echinochloa crus-galli. The following applies: dosage 1000 g/ha; post-emergence, one leaf stage; 21 days after treatment. A digest of the protocol:
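Plastic pots of 75 cm^2 were filled with clay loam soil and sown with barnyard glass and bulrush seeds, then topped with 75 cm^3 soil containing false pimpernel seeds. The pots were flooded to 5 cm water depth and held in a hot house. Twenty-one days after treatment, herbicidal efficacy was graded against an untreated control.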

The subject of data set [3] is paddy rice plant (cultivar: Nihonbare). The data set can be described thus: Test Example 3: phytotoxicity test for transplanted paddy rice plant. It is filed as in vivo. The following applies: dosage 1000 g/ha; transplanted rice, treated 5 days after transplantation; 21 days after treatment. A digest of the protocol:
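Clay loam soil was placed in a 75 cm^2 plastic pot and flooded to a water depth of 5 cm. Two Nihonbare paddy rice plants at the two-leaf stage were transplanted 1 cm deep and grown in a hot house. After treatment, pots stayed in the hot house for 21 days, and phytotoxicity was then graded against an untreated control.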

For data set [4], the system named is bulrush. In words: Test Example 4: low dosage test for rice paddy weeds. It is filed as in vivo, Scirpus juncoides. The following applies: 300 g/ha as an active ingredient; plants treated at the one leaf stage; 21 days after treatment; vs untreated control.
Source text: as §1
A 75 cm^2 plastic pot was filled with soil (clay loam) and planted seeds of bulrush which is a rice paddy weed. After covering the top with 75 cm^3 soil, the pot was filled with water so that the soil submerged under 5 cm depth of water and kept in a hot house. The test plants, at the one leaf stage, were treated with the solution of a formulation containing the compound of the present invention as an active ingredient at the predetermined effective dosage (300 g/ha as an active ingredient). The pots were kept in a hot house for 21 days after the treatment and the herbicidal efficacy was investigated and evaluated according to the standard in Test Example 1 by comparing with the untreated control. Further, as a comparative compound, the compound No. 6-28 described in the JP-A-2004-107322 was used.

In data set [5] the test system is false pimpernel. The data set can be described thus: Test Example 2: herbicidal efficacy on rice paddy weeds post-emergence. It is filed as in vivo, Lindernia pyxidaria. The following applies: dosage 1000 g/ha; post-emergence, one leaf stage; 21 days after treatment.
Data set [6] concerns bulrush. In words: Test Example 1: herbicidal efficacy on rice paddy weeds pre-emergence. It is filed as in vivo, Scirpus juncoides. The following applies: dosage 1000 g/ha, 21 days.
For data set [7], the system named is bulrush. The data set can be described thus: Test Example 2: herbicidal efficacy on rice paddy weeds post-emergence. It is filed as in vivo, Scirpus juncoides. The following applies: dosage 1000 g/ha; post-emergence, one leaf stage; 21 days after treatment.

For `CCOC(=O)N(c1ccccc1CN1CC(C)(CC(C)C)OC1=O)S(=O)(=O)C(F)(F)F` (racemic) [1-125], the “False pimpernel pre (herbicidal efficacy grade)” value (“False pimpernel pre” for short) in the data set on false pimpernel [1] was 4 (90%-100% of herbicidal efficacy or phytotoxicity). Further, the “Selective Index” value in data set [2] was determined as 10. Also, the “Burnyard grass post (herbicidal efficacy grade)” value (from here on “Burnyard grass post”) with barnyard glass is listed as 4 (90%-100% of herbicidal efficacy or phytotoxicity). Further, the “Phytotoxicity to paddy rice” value in data set [3] is reported as 1 (1%-39% of herbicidal efficacy or phytotoxicity). For the same molecule, the “Herbicide effect to Bulrush” value in the data set with bulrush [4] was 4 (90%-100% of herbicidal efficacy or phytotoxicity). Further, the “False pimpernel post (herbicidal efficacy grade)” value (from here on “False pimpernel post”) in the data set on false pimpernel [5] is 4 (90%-100% of herbicidal efficacy or phytotoxicity). Besides, the “Bulrush pre (herbicidal efficacy grade)” value in the data set on bulrush [6] is on record as 4 (90%-100% of herbicidal efficacy or phytotoxicity). The “Bulrush post (herbicidal efficacy grade)” value with bulrush [7] is reported as 4 (90%-100% of herbicidal efficacy or phytotoxicity).
Turning to `CCC1(CC)CN(Cc2ccccc2N(C(=O)OCC(C)(C)C)S(=O)(=O)C(F)(F)F)C(=O)O1` [1-100], the “False pimpernel pre” value in the data set with false pimpernel [1] is on record as 4 (90%-100% of herbicidal efficacy or phytotoxicity). Besides, in data set [2], the “Selective Index” value is reported as 10. For the same molecule, the “Burnyard grass post” value in the data set with barnyard glass was 4 (90%-100% of herbicidal efficacy or phytotoxicity). In addition, the “Phytotoxicity to paddy rice” value in data set [3] is 1 (1%-39% of herbicidal efficacy or phytotoxicity). The “Herbicide effect to Bulrush” value in the data set with bulrush [4] is recorded as 4 (90%-100% of herbicidal efficacy or phytotoxicity). In the data set on false pimpernel [5], the “False pimpernel post” value was 4 (90%-100% of herbicidal efficacy or phytotoxicity). Also, the “Bulrush pre (herbicidal efficacy grade)” value in the data set on bulrush [6] is recorded as 4 (90%-100% of herbicidal efficacy or phytotoxicity). Besides, the “Bulrush post (herbicidal efficacy grade)” value in the data set with bulrush [7] is 4 (90%-100% of herbicidal efficacy or phytotoxicity).
Turning to `CC(C)COC(=O)N(c1ccccc1CN1CC(C)(C(C)C)OC1=O)S(=O)(=O)C(F)(F)F` (racemic) [1-102], in the data set with false pimpernel [1], the “False pimpernel pre” value is listed as 4 (90%-100% of herbicidal efficacy or phytotoxicity). Also, the “Selective Index” value in data set [2] amounted to 10. Besides, the “Burnyard grass post” value with barnyard glass is recorded as 4 (90%-100% of herbicidal efficacy or phytotoxicity). In addition, the “Phytotoxicity to paddy rice” value in data set [3] is 1 (1%-39% of herbicidal efficacy or phytotoxicity). Further, the “Herbicide effect to Bulrush” value with bulrush [4] is 4 (90%-100% of herbicidal efficacy or phytotoxicity). For the same molecule, the “False pimpernel post” value in the data set on false pimpernel [5] is 4 (90%-100% of herbicidal efficacy or phytotoxicity). Also, the “Bulrush pre (herbicidal efficacy grade)” value with bulrush [6] was 4 (90%-100% of herbicidal efficacy or phytotoxicity). For the same molecule, in the data set with bulrush [7], the “Bulrush post (herbicidal efficacy grade)” value is given as 4 (90%-100% of herbicidal efficacy or phytotoxicity).
As to `CCC1CN(Cc2ccccc2N(C(=O)CC(C)C)S(=O)(=O)C(F)(F)F)C(=O)O1` (racemic) [1-53], in the data set with false pimpernel [1], the “False pimpernel pre” value is 4 (90%-100% of herbicidal efficacy or phytotoxicity). Also, the “Selective Index” value in data set [2] is given as 10. In addition, in the data set with barnyard glass, the “Burnyard grass post” value is given as 4 (90%-100% of herbicidal efficacy or phytotoxicity). Besides, the “Phytotoxicity to paddy rice” value in data set [3] is reported as 0 (0% of herbicidal efficacy or phytotoxicity). The “Herbicide effect to Bulrush” value in the data set on bulrush [4] is 3 (70%-89% of herbicidal efficacy or phytotoxicity). Further, the “False pimpernel post” value with false pimpernel [5] was 4 (90%-100% of herbicidal efficacy or phytotoxicity). In the data set with bulrush [6], the “Bulrush pre (herbicidal efficacy grade)” value is reported as 4 (90%-100% of herbicidal efficacy or phytotoxicity). Further, the “Bulrush post (herbicidal efficacy grade)” value in the data set on bulrush [7] is 4 (90%-100% of herbicidal efficacy or phytotoxicity).
As for `CC1(C2CC2)CN(Cc2ccccc2NS(=O)(=O)C(F)(F)F)C(=O)O1` (stereo not drawn) [1-71], in the data set with false pimpernel [1], the “False pimpernel pre” value is given as 4 (90%-100% of herbicidal efficacy or phytotoxicity). The “Selective Index” value in data set [2] came to 10. The “Burnyard grass post” value with barnyard glass is 4 (90%-100% of herbicidal efficacy or phytotoxicity). Besides, in data set [3], the “Phytotoxicity to paddy rice” value is on record as 1 (1%-39% of herbicidal efficacy or phytotoxicity). For the same molecule, the “Herbicide effect to Bulrush” value with bulrush [4] was 4 (90%-100% of herbicidal efficacy or phytotoxicity). In addition, the “False pimpernel post” value in the data set on false pimpernel [5] is reported as 4 (90%-100% of herbicidal efficacy or phytotoxicity). In addition, the “Bulrush pre (herbicidal efficacy grade)” value in the data set on bulrush [6] is reported as 4 (90%-100% of herbicidal efficacy or phytotoxicity). For the same molecule, the “Bulrush post (herbicidal efficacy grade)” value in the data set on bulrush [7] is given as 4 (90%-100% of herbicidal efficacy or phytotoxicity).
In the case of `CC(C)COC(=O)N(c1ccccc1CN1C(=O)OC(C)(C)C1=O)S(=O)(=O)C(F)(F)F` [Compound No. 1-189, 3-{2-[N-(isobutoxycarbonyl)-N-(trifluoromethanesulfonyl)amino]benzyl}-5,5-dimethyloxazolidine-2,4-dione], in the data set on false pimpernel [1], the “False pimpernel pre” value was 4 (90%-100% of herbicidal efficacy or phytotoxicity). Further, in data set [2], the “Selective Index” value is “≧10”. In the data set on barnyard glass, the “Burnyard grass post” value is recorded as 4 (90%-100% of herbicidal efficacy or phytotoxicity). For the same molecule, the “Phytotoxicity to paddy rice” value in data set [3] is on record as 1 (1%-39% of herbicidal efficacy or phytotoxicity). Also, the “Herbicide effect to Bulrush” value with bulrush [4] is recorded as 4 (90%-100% of herbicidal efficacy or phytotoxicity). In addition, in the data set with false pimpernel [5], the “False pimpernel post” value was 4 (90%-100% of herbicidal efficacy or phytotoxicity). The “Bulrush pre (herbicidal efficacy grade)” value in the data set with bulrush [6] was 4 (90%-100% of herbicidal efficacy or phytotoxicity). Also, the “Bulrush post (herbicidal efficacy grade)” value with bulrush [7] is 4 (90%-100% of herbicidal efficacy or phytotoxicity).
Regarding `CC(C)COC(=O)N(c1ccccc1CN1CC(C)(C)SC1=O)S(=O)(=O)C(F)(F)F` [Compound No. 1-185, 3-{2-[N-(isobutoxycarbonyl)-N-(trifluoromethanesulfonyl)amino]benzyl}-5,5-dimethylthiazolidin-2-one], in the data set on false pimpernel [1], the “False pimpernel pre” value is 4 (90%-100% of herbicidal efficacy or phytotoxicity). Moreover, the “Selective Index” value in data set [2] is listed as 33.3. In the data set on barnyard glass, the “Burnyard grass post” value is listed as 4 (90%-100% of herbicidal efficacy or phytotoxicity). In data set [3], the “Phytotoxicity to paddy rice” value was 0 (0% of herbicidal efficacy or phytotoxicity). In addition, in the data set on bulrush [4], the “Herbicide effect to Bulrush” value is 4 (90%-100% of herbicidal efficacy or phytotoxicity). For the same molecule, the “False pimpernel post” value in the data set on false pimpernel [5] is listed as 4 (90%-100% of herbicidal efficacy or phytotoxicity). Moreover, the “Bulrush pre (herbicidal efficacy grade)” value with bulrush [6] is given as 4 (90%-100% of herbicidal efficacy or phytotoxicity). Moreover, the “Bulrush post (herbicidal efficacy grade)” value with bulrush [7] is listed as 4 (90%-100% of herbicidal efficacy or phytotoxicity).
With `CC(C)COC(=O)N(c1ccccc1CN1CC(C)(C)OC1=O)S(=O)(=O)C(F)(F)F` [1-44], the “False pimpernel pre” value with false pimpernel [1] is 4 (90%-100% of herbicidal efficacy or phytotoxicity). In data set [2], the “Selective Index” value is reported as 30. Also, in the data set on barnyard glass, the “Burnyard grass post” value was 4 (90%-100% of herbicidal efficacy or phytotoxicity). Besides, the “Phytotoxicity to paddy rice” value in data set [3] is 2 (40%-69% of herbicidal efficacy or phytotoxicity). For the same molecule, the “Herbicide effect to Bulrush” value in the data set with bulrush [4] is 4 (90%-100% of herbicidal efficacy or phytotoxicity). Besides, the “False pimpernel post” value with false pimpernel [5] is on record as 4 (90%-100% of herbicidal efficacy or phytotoxicity). In addition, in the data set with bulrush [6], the “Bulrush pre (herbicidal efficacy grade)” value is reported as 4 (90%-100% of herbicidal efficacy or phytotoxicity). In addition, the “Bulrush post (herbicidal efficacy grade)” value with bulrush [7] is 4 (90%-100% of herbicidal efficacy or phytotoxicity).
Consider `CC(C)COC(=O)N(c1ccccc1CN1CCOC1=O)S(=O)(=O)C(F)(F)F` [Compound No. 1-2], for which the “False pimpernel pre” value in the data set with false pimpernel [1] is 4 (90%-100% of herbicidal efficacy or phytotoxicity). Moreover, the “Selective Index” value in data set [2] turned out to be 3. Also, the “Burnyard grass post” value in the data set on barnyard glass is recorded as 4 (90%-100% of herbicidal efficacy or phytotoxicity). Further, the “Phytotoxicity to paddy rice” value in data set [3] is 1 (1%-39% of herbicidal efficacy or phytotoxicity). For the same molecule, in the data set on bulrush [4], the “Herbicide effect to Bulrush” value is 3 (70%-89% of herbicidal efficacy or phytotoxicity). Moreover, the “False pimpernel post” value in the data set with false pimpernel [5] is reported as 4 (90%-100% of herbicidal efficacy or phytotoxicity). Also, in the data set on bulrush [6], the “Bulrush pre (herbicidal efficacy grade)” value is recorded as 4 (90%-100% of herbicidal efficacy or phytotoxicity). Moreover, the “Bulrush post (herbicidal efficacy grade)” value with bulrush [7] was 4 (90%-100% of herbicidal efficacy or phytotoxicity).

The values above are taken from patent US20080274892A1, “Novel Haloalkylsulfonanilide Derivative, Herbicide, and Method of Use Thereof” (priority 2005, published 2008).
